Experimental data taken from patent US20170196842A1, “METHODS OF TREATMENT USING A 1,2,4-OXADIAZOLE BENZOIC ACID” (PTC Therapeutics, Inc., priority 2014, published 2017).
Entries after “also recorded” stand apart in the source; their conditions may differ.

Assays:
[1] = Weight gain and food intake of mice given Compound 1 in chow; assay type: in vivo, C57BL/6J mice; conditions: 1.0% (w/w) in chow
Text: Mice receiving food containing 1.0% (w/w) Compound 1 are 45% less food than mice receiving the control chow. However, a reduction in weight gain would not be expected to elicit a reduction in tissue GAG levels in the pharmacology studies.

[2] = system: Mouse embryonic fibroblasts (MEFs) isolated from the Idua-W402X mice; assay: GAG levels in cultured mouse embryonic fibroblasts from the nmHurler mouse model (Blyscan Sulfated GAG Assay); assay type: cell-based; conditions: 24 hours
Method: nmMPS I is caused by the lack of the lysosomal enzyme IDUA and results in the accumulation of GAGs in tissues. Therefore, GAG levels can be monitored to assess the efficacy of treatment for this disease. In the nmHurler mouse model of nmMPS I, the Idua-W402X Hurler mouse IDUA gene (TGG→TAG) harbors a W392X mutation in exon 9, corresponding to the W402X mutation found in approximately 30 to 50% of nmMPS I patients. Mouse embryonic fibroblasts (MEFs) isolated from the Idua-W402X mice were treated with Compound 1 at concentrations of 0, 1, 2.5, 5, 10, 20, and 40 μg/mL for 24 hours in 0.2% DMSO. After 24 hours, cells were lysed and the levels of GAGs were quantified.
(§1) The effect of Compound 1 on iduronidase activity as a result of readthrough of the premature stop codon present in the Idua gene was determined in an in vitro GAG accumulation assay. This assay utilized primary fibroblasts isolated from 13 day-old +/+ and −/− Idua-W392X mouse embryos. Mouse embryonic fibroblasts (MEFs) were isolated from 13 day-old wild type and homozygous Idua-W392X mouse embryo littermates. The cells were grown in Dulbecco's Modified Eagle Media (DMEM) containing 10% bovine calf serum (BCS)+1% non-essential amino acids+1% penicillin/streptomycin at 37° C. and 5% CO2. The MEFs were isolated and grown on collagen-coated plates until ˜50% confluent. MEFs from Idua-W392X mice were treated with increasing concentrations of Compound 1 dissolved in DMSO to a final concentration of 0.2%. Cells were incubated with Compound 1 for 24 hours. Controls included untreated wild type and untreated Idua-W392X MEFs. After 24 hours, cells were visually inspected for signs of cytotoxicity and cell stress and then lysed using M-Per Protein Reagent (Pierce) containing protease inhibitors (Complete-mini; Roche) per the manufacturer's instructions. The supernatant was used to determine glycosaminoglycan (GAG) levels, as described below.
GAG levels were determined using the Blyscan Sulfated GAG Assay (Biocolor Ltd, UK). Briefly, 50 μl of each lysate was added to 500 μl of the Blyscan Dye Reagent and mixed by vortexing. The mixture was incubated at room temperature for 30 minutes, vortexing every 5 minutes. The dye-bound GAGs were isolated from the solution by centrifuging for 10 minutes at 10,000 g at room temperature. 500 μl of the Blyscan Dye Dissociation Reagent was added to the […] from each sample. […] The entire volume of each sample was then placed into a cuvette and the absorbance was measured at a wavelength of 656 nm. The total amount of sulfated GAGs precipitated from each sample was determined from a standard curve using chondroitin 4-sulfate. The total protein concentration in each lysate was determined using the Bio-Rad protein assay with a standard curve generated using bovine serum albumin.

Idua-W402X mice = assay: Tissue GAG levels in the nonsense-mutation Hurler mouse model, Compound 1 given in chow; assay type: in vivo
Method: Compound 1 was administered to Idua-W402X mice by mixing Compound 1 into solid mouse chow at concentrations of 0.1%. 0.3% or 1.0% (w/w) for 2 weeks, after which time GAG levels in the brain, spleen, heart, liver, lung, and kidney tissues were quantified.
The effect of Compound 1 on iduronidase activity as a result of readthrough of the premature stop codon present in the Idua gene (Idua-W392X) was determined in a nonsense-mutation containing mouse model of Hurler syndrome, referred to as the Idua-W392X Hurler mouse. The study initiated when mice were 3-4 weeks old.
Homozygous Idua-W392X mice were offered food prepared with or without Compound 1 for 14 days. Wild type animals received chow without Compound 1 for 14 days. Assay results were obtained from tissues isolated from wild type (+/+) and homozygous Idua-W392X (−/−) mice after 14 days of treatment. Briefly, Compound 1 was dissolved in water, mixed into pulverized chow, shaped into pellets and dried.
Following the 14-day treatment period, mice were anesthetized using isoflurane and transcardially perfused with 20 mL saline prior to tissue collection. At the time of sacrifice, brain, liver, heart, lung, spleen and kidney were collected and frozen at −80° C. until used for determination of GAG levels.
GAG levels were determined using the Blyscan Sulfated GAG Assay (Biocolor Ltd, UK). Briefly, 50 μL of each lysate was added to 500 μL of the Blyscan Dye Reagent and mixed by vortexing. The mixture was incubated at room temperature for 30 minutes, vortexing every 5 minutes. The dye-bound GAGs were isolated from the solution by centrifuging for 10 minutes at 10,000 g at room temperature. A total of 500 μL of the Blyscan Dye Dissociation Reagent was added to the […] from each sample. The samples were vortexed and incubated for 10 minute at room temperature. The entire volume of each sample was then placed into a cuvette and the absorbance was measured at a wavelength of 656 nm. The total amount of sulfated GAGs precipitated from each sample was determined from a standard curve using chondroitin 4-sulfate. The total protein concentration in each lysate was determined using the Bio-Rad protein assay with a standard curve generated using bovine serum albumin.

[3] = system: Mouse embryonic fibroblasts (MEFs); assay: Cell toxicity/stress (visual inspection) and total protein concentration in MEFs; assay type: cell-based; conditions: 24 hours
Method: The greatest reduction of GAG levels occurred at 10 μg/mL with decreased reduction of GAG levels at concentrations above 20 μg/mL. […] Cell viability was determined by quantifying the total protein concentration in each lysate.
as §1, with “After 24 hours, cells were visually inspected for signs of cytotoxicity and cell stress and then lysed using M-Per Protein Reagent (Pierce) containing protease inhibitors (Complete-mini; Roche) per the manufacturer's instructions. The supernatant was used to determine glycosaminoglycan (GAG) levels, as described below.” left out
The total protein concentration in each lysate was determined using the Bio-Rad protein assay with a standard curve generated using bovine serum albumin.

[4] = Idua-W402X (W392X) mice, 0.1%, 0.3%, 1.0% (w/w) chow, 14 days
[5] = Idua-W402X mice, 0.1% (w/w) in chow, 2 weeks
[6] = Idua-W402X mice, 0.3% (w/w) in chow, 2 weeks
[7] = Idua-W402X mice, 1.0% (w/w) in chow, 2 weeks

Reduction of food intake versus control chow [1]: 45% | Weight gain versus 0.1%, 0.3% doses or vehicle ([1]; satellite PK study and Idua-W402X pharmacology studies): did not gain as much weight
SMILES: O=C(O)c1cccc(-c2noc(-c3ccccc3F)n2)c1 [Compound 1, 3-[5-(2-fluoro-phenyl)-[1,2,4]oxadiazol-3-yl]-benzoic acid]
Dose-response relationship for GAG reduction ([2]; Idua-W392X MEFs): U shaped dose-response relationship | Nonsense suppression activity as determined by GAG levels ([2]; Idua-W392X MEFs): concentration dependent nonsense suppression activity | Concentration giving the greatest reduction of GAG levels ([2]; Idua-W402X (W392X) MEFs, 1-40 μg/mL tested): 10 µg/mL | Concentrations with decreased reduction of GAG levels ([2]; Idua-W402X MEFs): above 20 μg/mL | Nonsense suppression activity as determined by decreased GAG levels in multiple tissues (Idua-W402X mice; Idua-W392X mice, chow, 14 days): concentration-dependent nonsense suppression activity | Compound 1 concentration in chow giving maximal reduction of GAG levels in brain, spleen, heart and lung (Idua-W402X mice; [4]): 0.1% | Compound 1 concentration in chow giving maximal reduction of liver GAG levels (Idua-W402X mice; [4]): 0.3% | Effect on GAG levels in the kidney (Idua-W402X mice; Idua-W402X (W392X) mice, any dose (0.1-1.0% chow)): No statistically significant effect | Reduction in Excess GAG Levels, Brain (Idua-W402X mice; [5]): 70% | Reduction in Excess GAG Levels, Heart (Idua-W402X mice; [5]): 36% | Reduction in Excess GAG Levels, Kidney (Idua-W402X mice; [5]): 0% | Reduction in Excess GAG Levels, Liver (Idua-W402X mice; [5]): 0% | Reduction in Excess GAG Levels, Lung (Idua-W402X mice; [5]): 19% | Reduction in Excess GAG Levels, Spleen (Idua-W402X mice; [5]): 78% | GAG levels achieved in the brain and spleen (Idua-W402X mice; Idua-W402X mice, 0.1% in chow, 2 weeks): near normal GAG levels | Reduction in Excess GAG Levels, Brain (Idua-W402X mice; [6]): 37% | Reduction in Excess GAG Levels, Heart (Idua-W402X mice; [6]): 0% | Reduction in Excess GAG Levels, Kidney (Idua-W402X mice; [6]): 0% | Reduction in Excess GAG Levels, Liver (Idua-W402X mice; [6]): 53% | Reduction in Excess GAG Levels, Lung (Idua-W402X mice; [6]): 11% | Reduction in Excess GAG Levels, Spleen (Idua-W402X mice; [6]): 57% | Reduction in Excess GAG Levels, Brain (Idua-W402X mice; [7]): 28% | Reduction in Excess GAG Levels, Heart (Idua-W402X mice; [7]): 0% | Reduction in Excess GAG Levels, Kidney (Idua-W402X mice; [7]): 0% | Reduction in Excess GAG Levels, Liver (Idua-W402X mice; [7]): 17% | Reduction in Excess GAG Levels, Lung (Idua-W402X mice; [7]): 14% | Reduction in Excess GAG Levels, Spleen (Idua-W402X mice; [7]): 11% | Changes in total protein concentration (cell viability) ([3]; 0 to 40 μg/mL): No notable changes | Signs of cellular toxicity or stress (cells rounding up or floating, changes in cell density) ([3]; up to the highest concentration tested (40 μg/mL)): No signs of cellular toxicity or stress; also recorded: No signs of cell toxicity or stress
